Reference: patent US11866450B2, “Modulators of Cystic Fibrosis Transmembrane Conductance regulator, pharmaceutical compositions, methods of treatment, and process for making the modulators” (priority 2018, dated 2024)

Molecular target: CFTR-mediated chloride transport (Homo sapiens, UniProt P13569)
Assay type: cell-based
Settings: enteroid cells incubated with test compound 18-24 hours, acute 10 μM forskolin and 300 nM Compound III; for Max. Activity: % of chloride transport with 3 μM Compound A, 3 μM Compound II and 300 nM acute Compound III triple combination control
Method in brief: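 Membrane-potential fluorescence AUC over 15 min quantified CFTR chloride transport after acute forskolin (10 μM), IBMX (100 μM) and Compound III (300 nM) in chloride-free buffer. Human enteroid cells were pretreated with compound for 18–24 h; % Activity is relative to 3 μM Compound A + 3 μM Compound II + 300 nM Compound III.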

Sequence of CFTR-mediated chloride transport (P13569 whole entry, looked up): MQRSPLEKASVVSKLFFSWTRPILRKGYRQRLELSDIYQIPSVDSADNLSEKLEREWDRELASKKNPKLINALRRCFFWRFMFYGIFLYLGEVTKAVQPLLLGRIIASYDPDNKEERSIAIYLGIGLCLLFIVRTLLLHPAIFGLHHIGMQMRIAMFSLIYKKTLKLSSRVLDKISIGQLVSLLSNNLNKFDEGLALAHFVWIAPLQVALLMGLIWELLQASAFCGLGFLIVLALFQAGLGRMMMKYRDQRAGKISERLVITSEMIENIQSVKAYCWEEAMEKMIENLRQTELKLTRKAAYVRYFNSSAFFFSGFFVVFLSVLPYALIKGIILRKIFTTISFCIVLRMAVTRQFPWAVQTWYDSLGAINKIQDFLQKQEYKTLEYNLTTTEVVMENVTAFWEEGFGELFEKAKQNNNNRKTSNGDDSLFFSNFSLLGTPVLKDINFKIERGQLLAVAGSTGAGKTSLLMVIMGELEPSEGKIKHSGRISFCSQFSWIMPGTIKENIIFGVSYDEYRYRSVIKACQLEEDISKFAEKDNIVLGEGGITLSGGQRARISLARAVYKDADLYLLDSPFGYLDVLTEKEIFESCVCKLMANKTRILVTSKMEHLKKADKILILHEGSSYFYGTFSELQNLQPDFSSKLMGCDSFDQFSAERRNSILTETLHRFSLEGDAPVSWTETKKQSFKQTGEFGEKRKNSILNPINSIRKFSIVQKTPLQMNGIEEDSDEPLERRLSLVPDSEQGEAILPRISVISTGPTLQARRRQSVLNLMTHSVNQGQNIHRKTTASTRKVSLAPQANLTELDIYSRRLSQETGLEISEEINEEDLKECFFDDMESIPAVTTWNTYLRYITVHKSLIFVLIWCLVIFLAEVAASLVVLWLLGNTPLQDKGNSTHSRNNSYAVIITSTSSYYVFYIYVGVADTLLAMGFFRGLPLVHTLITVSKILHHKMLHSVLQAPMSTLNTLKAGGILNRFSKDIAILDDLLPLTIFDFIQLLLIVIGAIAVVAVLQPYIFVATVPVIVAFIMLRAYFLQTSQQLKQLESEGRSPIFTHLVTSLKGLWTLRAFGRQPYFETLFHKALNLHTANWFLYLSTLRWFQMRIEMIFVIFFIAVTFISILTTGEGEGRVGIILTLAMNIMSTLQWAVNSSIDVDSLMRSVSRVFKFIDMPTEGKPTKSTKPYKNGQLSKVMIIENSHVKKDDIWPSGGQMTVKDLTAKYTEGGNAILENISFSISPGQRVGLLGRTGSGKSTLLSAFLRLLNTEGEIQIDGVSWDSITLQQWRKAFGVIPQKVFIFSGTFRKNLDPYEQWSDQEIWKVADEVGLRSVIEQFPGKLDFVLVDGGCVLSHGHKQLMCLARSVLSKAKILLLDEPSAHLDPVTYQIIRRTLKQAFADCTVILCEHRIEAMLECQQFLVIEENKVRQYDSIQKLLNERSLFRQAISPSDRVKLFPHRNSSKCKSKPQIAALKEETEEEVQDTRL

For `CC1(C)CC2CCCNc3cccc(n3)S(=N)(=O)NC(=O)c3ccc(-n4ccc(OCCC5(C(F)(F)F)CC5)n4)nc3N1C2` (stereo not drawn) [Compound 262, 2-imino-12,12-dimethyl-8-(3-{2-[1-(trifluoromethyl)cyclopropyl]ethoxy}-1H-pyrazol-1-yl)-2λ^6-thia-3,9,11,18,23-pentaazatetracyclo[17.3.1.111,14.05,10]tetracosa-1(23),5,7,9,19,21-hexaene-2,4-dione], the EC50 was < 1000 nM and the “Max. Activity” value was “+++ (+++ is >60%)”.

With `CC(C)C(COc1ccn(-c2ccc3c(n2)N2C[C@@H](CC2(C)C)OCCNc2cccc(n2)S(=O)(=O)NC3=O)n1)C(C)C` (single isomer, unassigned) [Compound 248, 12,12-dimethyl-8-{3-[3-methyl-2-(propan-2-yl)butoxy]-1H-pyrazol-1-yl}-15-oxa-2λ^6-thia-3,9,11,18,23-pentaazatetracyclo[17.3.1.111,14.05,10]tetracosa-1(23),5(10),6,8,19,21-hexaene-2,2,4-trione] the EC50 was < 1000 nM and the “Max. Activity” value was “++ (++ is 30-60%)”.

With `CC1(C)C[C@@H]2CN1c1nc(-n3ccc(OCCC4C5(CC5)C45CC5)n3)ccc1C(=O)NS(=O)(=O)c1cccc(n1)NCC(F)(F)C2` (single isomer, unassigned) [Compound 305, 8-[3-(2-{Dispiro[2.0.2.1]heptan-7-yl}ethoxy)-1H-pyrazol-1-yl]-16,16-difluoro-12,12-dimethyl-2λ^6-thia-3,9,11,18,23-pentaazatetracyclo[17.3.1.111,14.05,10]tetracosa-1(22),5,7,9,19(23),20-hexaene-2,2,4-trione] the EC50 was > 3000 nM and the “Max. Activity” value was “+ (+ is <30%)”.

In the case of `CC1(C)C[C@H]2CCCn3ccc(n3)S(=O)(=O)NC(=O)c3ccc(N4CC[C@H](CCCC5(C(F)(F)F)CC5)C4=O)nc3N1C2` (single isomer, unassigned) [Compound 182, 20,20-dimethyl-4-(2-oxo-3-{3-[1-(trifluoromethyl)cyclopropyl]propyl}pyrrolidin-1-yl)-10λ^6-thia-1,3,9,14,22-pentaazatetracyclo[16.2.1.111,14.02,7]docosa-2,4,6,11(22),12-pentaene-8,10,10-trione], the EC50 is reported as < 1000 nM and the “Max. Activity” value is reported as “++ (++ is 30-60%)”.

`CC1(C)C[C@H]2CCCCc3cccc(n3)S(=O)(=O)NC(=O)c3ccc(-n4ccc(OCCC5(C(F)(F)F)CC5)n4)nc3N1C2` (single isomer, unassigned) [Compound 86, 12,12-dimethyl-8-(3-{2-[1-(trifluoromethyl)cyclopropyl]ethoxy}-1H-pyrazol-1-yl)-2λ^6-thia-3,9,11,23-tetraazatetracyclo[17.3.1.111,14.05,10]tetracosa-1(23),5,7,9,19,21-hexaene-2,2,4-trione] was tested, and the EC50 was > 3000 nM and the “Max. Activity” value was “+ (+ is <30%)”.

With `CC1(C)CC[C@H]2CCNc3cccc(n3)S(=O)(=O)NC(=O)c3ccc(-n4ccc(OCCC5(C(F)(F)F)CC5)n4)nc3N21` (single isomer, unassigned) [Compound 117, 8,8-dimethyl-12-(3-{2-[1-(trifluoromethyl)cyclopropyl]ethoxy}-1H-pyrazol-1-yl)-18λ^6-thia-2,9,11,17,23-pentaazatetracyclo[17.3.1.05,9.010,15]tricosa-1(23),10(15),11,13,19,21-hexaene-16,18,18-trione] the EC50 was < 1000 nM and the “Max. Activity” value was “++ (++ is 30-60%)”.

With `CC1(C)C[C@@H]2CCCNc3cc(O)cc(n3)S(=O)(=O)NC(=O)c3ccc(-n4ccc(OCCCC5(C(F)(F)F)CC5)n4)nc3N1C2` [Compound 265, (14S)-21-Hydroxy-12,12-dimethyl-8-(3-{3-[1-(trifluoromethyl)cyclopropyl]propoxy}-1H-pyrazol-1-yl)-2λ^6-thia-3,9,11,18,23-pentaazatetracyclo[17.3.1.111,14.05,10]tetracosa-1(22),5,7,9,19(23),20-hexaene-2,2,4-trione] the EC50 was < 1000 nM and the “Max. Activity” value was “+++ (+++ is >60%)”.

For `Cc1c2cnn1CCCC1CN(c3nc(-n4ccc(OCC(C)(C)C(F)(F)F)n4)ccc3C(=O)NS2(=O)=O)C(C)(C)C1` (stereo not drawn) [Compound 282, 20,20,22-trimethyl-4-[3-(3,3,3-trifluoro-2,2-dimethylpropoxy)-1H-pyrazol-1-yl]-10λ^6-thia-1,3,9,13,14-pentaazatetracyclo[16.2.1.111,14.02,7]docosa-2,4,6,11(22),12-pentaene-8,10,10-trione], the EC50 was > 3000 nM and the “Max. Activity” value was “+ (+ is <30%)”.

With `CC1CCC2CN(c3nc(-n4ccc(OCCC5(C(F)(F)F)CC5)n4)ccc3C(=O)NS(=O)(=O)c3cccc(n3)N1)C(C)(C)C2` (stereo not drawn) [Compound 35, 12,12,17-trimethyl-8-(3-{2-[1-(trifluoromethyl)cyclopropyl]ethoxy}-1H-pyrazol-1-yl)-2λ^6-thia-3,9,11,18,23-pentaazatetracyclo[17.3.1.111,14.05,10]tetracosa-1(23),5(10),6,8,19,21-hexaene-2,2,4-trione] the EC50 was < 1000 nM and the “Max. Activity” value was “+++ (+++ is >60%)”.

In the case of `CC1(C)C[C@H]2CCNc3cccc(n3)S(=O)(=O)NC(=O)c3ccc(-n4ccc(OCCCC5(C(F)(F)F)CC5)n4)nc3N1C2` (single isomer, unassigned) [Compound 235, 7,7-dimethyl-11-(3-{3-[1-(trifluoromethyl)cyclopropyl]propoxy}-1H-pyrazol-1-yl)-17λ^6-thia-2,8,10,16,22-pentaazatetracyclo[16.3.1.15,8.09,14]tricosa-1(22),9,11,13,18,20-hexaene-15,17,17-trione], the EC50 is reported as < 1000 nM and the “Max. Activity” value is reported as “+++ (+++ is >60%)”.

For `CC1(C)C[C@@H]2CCCNc3cccc(n3)S(=O)(=O)NC(=O)c3ccc(N4CCN(CC(C)(C)C(F)(F)F)C4=O)nc3N1C2` [Compound 225, (14S)-12,12-dimethyl-8-[2-oxo-3-(3,3,3-trifluoro-2,2-dimethylpropyl)imidazolidin-1-yl]-2λ^6-thia-3,9,11,18,23-pentaazatetracyclo[17.3.1.111,14.05,10]tetracosa-1(22),5,7,9,19(23),20-hexaene-2,2,4-trione], the EC50 was < 1000 nM and the “Max. Activity” value was “++ (++ is 30-60%)”.

`CC1(C)C[C@H]2CCCn3ccc(n3)S(=O)(=O)NC(=O)c3ccc(-n4ccc(OCCCC5(C(F)(F)F)CC5)n4)nc3N1C2` (single isomer, unassigned) [Compound 165, 20,20-dimethyl-4-(3-{3-[1-(trifluoromethyl)cyclopropyl]propoxy}-1H-pyrazol-1-yl)-10λ^6-thia-1,3,9,14,22-pentaazatetracyclo[16.2.1.111,14.02,7]docosa-2(7),3,5,11(22),12-pentaene-8,10,10-trione] was tested, and the EC50 was > 3000 nM and the “Max. Activity” value was “+ (+ is <30%)”.

With `CC1(CC2CCN(c3ccc4c(n3)N3C[C@@H](CCCNc5cccc(n5)S(=O)(=O)NC4=O)CC3(C)C)C2=O)CCCCC1` (stereo partly drawn) [Compound 101, (14S)-12,12-dimethyl-8-{3-[(1-methylcyclohexyl)methyl]-2-oxopyrrolidin-1-yl}-2λ^6-thia-3,9,11,18,23-pentaazatetracyclo[17.3.1.111,14.05,10]tetracosa-1(22),5,7,9,19(23),20-hexaene-2,2,4-trione] the EC50 was < 1000 nM and the “Max. Activity” value was “++ (++ is 30-60%)”.

`CC1(C)C[C@@H]2CN1c1nc(-n3ccc(OCCC4C5(CC5)C45CC5)n3)ccc1C(=O)NS(=O)(=O)c1cccc(n1)NCCO2` (single isomer, unassigned) [Compound 197, 8-[3-(2-{dispiro[2.0.2.1]heptan-7-yl}ethoxy)-1H-pyrazol-1-yl]-12,12-dimethyl-15-oxa-2λ^6-thia-3,9,11,18,23-pentaazatetracyclo[17.3.1.111,14.05,10]tetracosa-1(23),5(10),6,8,19,21-hexaene-2,2,4-trione] was tested, and the EC50 was < 1000 nM and the “Max. Activity” value was “+++ (+++ is >60%)”.

With `CC1(C)C[C@@H]2CCCNc3cccc(n3)S(=O)(=O)NC(=O)c3ccc(-n4ccc(OCC(=O)C5C6(CC6)C56CC6)n4)nc3N1C2` [Compound 258, (14S)-8-[3-(2-{Dispiro[2.0.2.1]heptan-7-yl}-2-oxoethoxy)-1H-pyrazol-1-yl]-12,12-dimethyl-2λ^6-thia-3,9,11,18,23-pentaazatetracyclo[17.3.1.111,14.05,10]tetracosa-1(22),5,7,9,19(23),20-hexaene-2,2,4-trione] the EC50 was < 1000 nM and the “Max. Activity” value was “+++ (+++ is >60%)”.

With `Cc1ccc2nc1S(=O)(=O)NC(=O)c1ccc(-n3ccc(OCCC4(C(F)(F)F)CC4)n3)nc1N1C[C@H](CCCN2)CC1(C)C` (single isomer, unassigned) [Compound 148, 12,12,22-trimethyl-8-(3-{2-[1-(trifluoromethyl)cyclopropyl]ethoxy}-1H-pyrazol-1-yl)-2λ^6-thia-3,9,11,18,23-pentaazatetracyclo[17.3.1.111,14.05,10]tetracosa-1(23),5(10),6,8,19,21-hexaene-2,2,4-trione] the EC50 was > 3000 nM and the “Max. Activity” value was “+ (+ is <30%)”.

In the case of `CC1(C)CC[C@H]2CCCNc3cccc(n3)S(=O)(=O)NC(=O)c3ccc(-n4ccc(OCCC(C5CC5)C5CC5)n4)nc3N21` (single isomer, unassigned) [Compound 137, 8-[3-(3,3-Dicyclopropylpropoxy)-1H-pyrazol-1-yl]-12,12-dimethyl-2λ^6-thia-3,9,11,19,24-pentaazatetracyclo[18.3.1.05,10.011,15]tetracosa-1(23),5(10),6,8,20(24),21-hexaene-2,2,4-trione], the EC50 is reported as > 3000 nM and the “Max. Activity” value is reported as “+ (+ is <30%)”.

In the case of `CC(C)(C)CCN1CCN(c2ccc3c(n2)N2C(CCCNc4cccc(n4)S(=O)(=O)NC3=O)CCC2(C)C)C1=O` (stereo not drawn) [Compound 232, 8-[3-(3,3-dimethylbutyl)-2-oxoimidazolidin-1-yl]-12,12-dimethyl-2λ^6-thia-3,9,11,19,24-pentaazatetracyclo[18.3.1.05,10.011,15]tetracosa-1(23),5,7,9,20(24),21-hexaene-2,2,4-trione], the EC50 is reported as > 3000 nM and the “Max. Activity” value is reported as “+ (+ is <30%)”.
